Reference: PubChem BioAssay (NCI)
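In this assay, cells in 96-well plates receive the compound at five concentrations for 48 hours. Endpoints are linearly interpolated between the surrounding concentrations. Abbreviation: GI50, concentration required for 50% inhibition of growth. TGI: total growth inhibition.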

Legend:
Test in all cases: growth of human tumour cells (NCI), 48 h
[1] = tested on: 786-0 renal
[2] = tested on: HOP-18 NSCLC
[3] = tested on: DMS 273 small cell lung
[4] = tested on: BT-549 breast
[5] = tested on: DMS 114 small cell lung
[6] = tested on: MDA-N
[7] = tested on: LXFL 529 NSCLC
[8] = tested on: NCI/ADR-RES ovarian
[9] = tested on: RXF-631 renal

| SMILES | TGI [1] [µM] | TGI [2] [µM] | TGI [3] [µM] | TGI [4] [µM] | TGI [5] [µM] | TGI [6] [µM] | TGI [7] [µM] | further results |
| --- | --- | --- | --- | --- | --- | --- | --- | --- |
| Cc1ccc(NCCN(C)C)c2c(=O)c3cc(O)ccc3sc12 | 9.07 | 15.3 | 15.9 | 20.3 | 28 | 4.58 | 21.7 | – |
| COc1cc(/C=C2/Oc3c(OC)cccc3C2=O)ccc1O | > 100 | – | – | > 100 | – | > 100 | – | – |
| C/C(=N\NC(=S)N1CCOCC1)c1nc2ncccc2[nH]1 | – | – | – | > 100 | – | > 100 | – | TGI [8]: > 100 µM |
| CCOC(=O)c1csc(NC(=O)C(C)N2CCOCC2)n1 (configuration not stated) | – | – | – | – | – | > 100 | – | TGI [8]: > 100 µM |
| CCN(CC)CCNc1ccc([N+](=O)[O-])c2sc3cc(Cl)ccc3c(=O)c12 | – | – | – | > 100 | – | – | – | GI50 [4]: 17.7 µM |
| c1cncc([O][Ge]([O]c2cccnc2)([O]c2cccnc2)[O]c2cccnc2)c1 | – | > 100 | > 100 | – | – | – | – | GI50 [2]: > 100 µM; GI50 [3]: > 100 µM |
| CC1(Cl)CC(C)(/C=C/Cl)C(Cl)CC1Cl (configuration not stated) | 29.1 | – | – | – | – | – | 28.3 | TGI [9]: 28.7 µM |
| Cc1ccc(NC(=O)C(=O)Cc2cccc[n+]2[O-])cc1C | > 100 | > 100 | – | – | > 100 | – | > 100 | – |
| NC(Cc1ccccc1CP(=O)(O)O)C(=O)O (configuration not stated) | – | – | – | > 100 | – | > 100 | – | TGI [8]: > 100 µM |
| COC(=O)C(NC(=O)c1ccccc1)C(c1c(O)cc(O)cc1O)P(=O)(OC)OC (configuration not stated) | – | – | > 100 | – | > 100 | – | > 100 | TGI [9]: > 100 µM |
| CC(C)=CCC/C(C)=C/C=C/C(C)=C/C1C[C@@]2(C(O)O1)[C@H](CCCO)/C(=C(/C)C=O)CC[C@]2(C)O (some centres not stated) | – | 33.4 | 7.82 | – | 27.4 | – | – | – |
| C(=C\c1c2oc(-c3ccccc3)cc(-c3ccccc3)c-2c2ccccc12)/C=C1\c2ccccc2-c2c(-c3ccccc3)cc(-c3ccccc3)[o+]c21 | > 100 | – | > 100 | – | > 100 | – | > 100 | – |
